In ChEMBL document CHEMBL1201862, “PubChem BioAssay data set” (2004):
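Test compounds were applied to cells in 96-well plates for 48 hours at 5 doses. At the GI50, growth is halved.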 Active and inactive are the calls of the source. No stated cut-off is given here; in the data, active = GI50 up to about 1.1 µM and inactive = higher.

Columns and labels:
Test in all cases: NCI tumour cell line growth inhibition, 48 h
SF-268 = system: SF-268
K562 = system: K562
PC-3 = system: PC-3
RXF 393 = system: RXF 393
SW-620 = system: SW-620
SK-MEL-2 = system: SK-MEL-2
SK-OV-3 = system: SK-OV-3
SK-MEL-5 = system: SK-MEL-5
MDA-N = system: MDA-N
M14 = system: M14
DU-145 = system: DU-145
MOLT-4 = system: MOLT-4
MCF7 = system: MCF7
KM12 = system: KM12
CCRF-CEM = system: CCRF-CEM
TK-10 = system: TK-10
Hs-578T = system: Hs-578T
RPMI-8226 = system: RPMI-8226
A498 = system: A498

Measured: GI50

COc1ccc(N2C(=O)CS(=O)(=O)C2c2cccc(Oc3ccccc3)c2)cc1 (stereo not given)
inactive: SF-268 4.98 µM | K562 1.71 µM | PC-3 3.65 µM | RXF 393 4.04 µM | SW-620 3.27 µM | SK-MEL-2 3.56 µM | SK-OV-3 4.38 µM | SK-MEL-5 4.57 µM | MDA-N 1.22 µM | M14 3.7 µM | DU-145 6.65 µM | MOLT-4 3.5 µM | MCF7 1.87 µM | KM12 4.4 µM | CCRF-CEM 5.25 µM | TK-10 2.65 µM | Hs-578T 3.78 µM

Cn1c(=O)cc(NCc2ccc(Cl)cc2)[nH]c1=O
inactive: SF-268 18.8 µM | K562 > 100 µM | PC-3 > 100 µM | RXF 393 68.7 µM | SW-620 > 100 µM | RPMI-8226 > 100 µM | SK-MEL-2 > 100 µM | SK-OV-3 > 100 µM | SK-MEL-5 > 100 µM | MDA-N > 100 µM | M14 > 100 µM | A498 > 100 µM | MCF7 31.9 µM | KM12 > 100 µM | TK-10 21.5 µM | Hs-578T 18.8 µM

CNC(=O)c1nc[nH]c1/N=N/N(C)N
inactive: SF-268 > 100 µM | K562 > 100 µM | PC-3 > 100 µM | RXF 393 > 100 µM | SW-620 > 100 µM | RPMI-8226 > 100 µM | SK-MEL-2 > 100 µM | SK-OV-3 > 100 µM | SK-MEL-5 49.9 µM | MDA-N > 100 µM | M14 > 100 µM | DU-145 > 100 µM | A498 > 100 µM | MOLT-4 > 100 µM | KM12 40.5 µM | CCRF-CEM > 10 µM | TK-10 > 100 µM | Hs-578T > 100 µM

CC(C)(C)/C(O)=C\c1nc2ccc(C(F)(F)F)cc2[nH]c1=O
inactive: SF-268 > 100 µM | K562 > 100 µM | PC-3 > 100 µM | RXF 393 > 100 µM | SW-620 > 100 µM | RPMI-8226 > 100 µM | SK-MEL-2 > 100 µM | SK-OV-3 > 100 µM | SK-MEL-5 > 100 µM | MDA-N > 100 µM | M14 > 100 µM | DU-145 > 100 µM | A498 > 100 µM | MOLT-4 > 100 µM | KM12 > 100 µM | CCRF-CEM > 100 µM | TK-10 > 100 µM | Hs-578T > 100 µM

CCC(CCN)(CCN)[N+](=O)[O-]
inactive: SF-268 > 100 µM | K562 > 100 µM | PC-3 > 100 µM | RXF 393 > 100 µM | SW-620 > 100 µM | RPMI-8226 > 100 µM | SK-MEL-2 > 100 µM | SK-OV-3 > 100 µM | SK-MEL-5 > 100 µM | MDA-N > 100 µM | M14 > 100 µM | DU-145 > 100 µM | MOLT-4 > 100 µM | MCF7 > 100 µM | KM12 > 100 µM | Hs-578T > 100 µM
